According to US20120178646A1, “HIGH THROUGHPUT METHOD AND SYSTEM FOR IN VIVO SCREENING” (ZF SCREENS B.V., priority 2009, published 2012):

Test system: Mycobacterium marinum strain E11
Assay: Granuloma formation in zebrafish larvae after intrayolk injection with Mycobacterium marinum (COPAS XL fluorescence profiling)
Format: in vivo
Settings: zebrafish embryos injected intrayolk at 16- to 256-cell stage, refreshed daily, screened at 5 dpi, confirmed by stereo fluorescence microscopy

Row | Structure (SMILES) | presence of CherryFP-labeled granulomas in larvae (exposed from 2 dpi to 10 μM in 0.5% DMSO) | presence of CherryFP-labeled granulomas in larvae (exposed from 2 dpi to 2 mM in water)
1 | O=S(=O)(NCCNC/C=C/c1ccc(Br)cc1)c1cccc2cnccc12 [H89] | did not contain granulomas | 
2 | CC[C@@H](CO)NCCN[C@@H](CC)CO [ethambutol] |  | did not contain granulomas
